Experimental data as given in patent publication US10342796B2, “Acrylanilide derivative, preparation method, and applications thereof in pharmacy” (Ancureall Pharmaceutical (Shanghai) Co., Ltd., priority 2015, dated 2019).

Assays:
Test in all cases: Growth inhibition GI50 in vitro (CCK8/MTT, 72 h)
Assay type in all cases: cell-based, human
AU565 (Her2 amp) = conditions: Homo sapiens, AU565; HER2 positive cell line; range of GI50; read-out: GI50 AU-565
N87 (HER2 Amp) = conditions: Homo sapiens; HER2 positive cell line; range of GI50; read-out: GI50 N87
A549 (EGFR WT) = conditions: Homo sapiens, A549; EGFR wild type cell line; range of GI50; read-out: GI50 A549
[1] = system: H460 (EGFR wt, Kras G61H); conditions: Homo sapiens, NCI-H460; EGFR wild type cell line; range of GI50; read-out: GI50 H460
[2] = system: A431 (EGFR WT, amplification and high expression); conditions: Homo sapiens, A-431; EGFR wild type cell line; range of GI50; read-out: GI50 A431
[3] = system: H1299 (EGFR wt, Nras Q61K); conditions: Homo sapiens, NCI-H1299; EGFR wild type cell line; range of GI50; read-out: GI50 H1299
HCC827 (EGFR dE746-A750) = conditions: Homo sapiens, HCC827; EGFR mutant cell line; range of GI50; read-out: GI50 HCC827
H1975 (EGFR L858R/T790M) = conditions: Homo sapiens, NCI-H1975; EGFR mutant cell line; range of GI50; read-out: GI50 H1975
[4] = system: PC-9ER (EGFR delE746-A750/T790M); conditions: Homo sapiens, PC-9/ER; EGFR mutant cell line; range of GI50; read-out: GI50 PC9ER
PC-9 (EGFR dE746-A750) = conditions: Homo sapiens; EGFR mutant cell line; range of GI50; read-out: GI50 PC-9
SK-BR-3 (Her2 amp) = conditions: Homo sapiens, SK-BR-3; HER2 positive cell line; range of GI50; read-out: GI50 SK-BR-3
Experimental: Human lung adenocarcinoma cell line Calu-3 (ATCC) was cultured with 1×MEM complete medium (10% FBS, 1% double-antibiotics, 1% NEAA (Gibco), 2 mM glutamine and 1 mM of sodium pyruvate). Human breast cancer cell line SK-BR-3 was cultured with McCOY'S5A complete medium (10% FBS). Human colon cancer cell line SNU1040 (HER2 V777M positive) (ATCC) and human bronchoalveolar adenocarcinoma cell line NCI-H1781 (expressing HER2 exon 20 G776VC mutation) (ATCC) were cultured with 1×RPMI1640 complete medium (10% FBS), respectively.
The suspension cells were collected by centrifugation. The supernatant was discard and the cell pellet was resuspended and counted. Different cell concentrations (5˜10×10^4 cells/mL) were prepared according to the growth cycle of each cell line and then seeded on a 96-well plate (Corning), 100 μL/well. The cells were incubated over night at 37° C., 5% CO2. The compounds were added to the cells on the second day with 2 wells in parallel. The final concentration of organic solvent shall not exceed 1%. The cells were continually incubated for 72 h, and then subjected to MTT assay.
The present compounds and the reference compounds were dissolved with DMSO (Sigma), respectively. […] The storage concentration of compounds was 10 mM and kept at −20° C. They were diluted by 2 times or 10 times with serial dilution before using.
Dojindo CCK8 reagent kit was used as MTT assay. […] FC meter was used as microplate reader.
Adherent cell culture medium was discard and immediately replaced with fresh prepared medium which contains 10% CCK8 reagent (100 μL/well). For the suspension cells, CCK8 was directly added to 10% of the final concentration. The cells were continually incubated for 1˜4 h. When the color of control wells turned to dark yellow, the absorption value was measured at OD450 nm. The cell growth rate was calculated according to the following formula: cell growth rate (%)=100*(T−T0)/(C−T0), T=optical density of drug treatment cell well—optical density of blank control well; T0=optical density of cell well before drug treatment—optical density of blank control well; C=optical density of cell well of solvent control group—optical density of blank control well. […] The experiment was independently repeated 1˜3 times, and subject to biological statistical analysis.

GI50 (A549 (EGFR WT)) | GI50 [1] | GI50 [2] | GI50 [3] | GI50 (HCC827 (EGFR dE746-A750)) | GI50 (H1975 (EGFR L858R/T790M)) | GI50 [4] | GI50 (PC-9 (EGFR dE746-A750)) | GI50 (SK-BR-3 (Her2 amp)) | SMILES | GI50 (AU565 (Her2 amp)) | GI50 (N87 (HER2 Amp))
> 1000 nM | > 1000 nM | 100 to 1000 nM | > 1000 nM | 10 to 100 nM | 10 to 100 nM | 10 to 100 nM | 10 to 100 nM | 10 to 100 nM | C=CC(=O)Nc1cc(Nc2nccc(Nc3ccc(OCc4ccccn4)c(Cl)c3)n2)c(OC)cc1N1CCC(N(C)C)CC1 [Compound 28] | 10 to 100 nM | 10 to 100 nM
> 1000 nM | > 1000 nM | 100 to 1000 nM | > 1000 nM | < 10 nM | 10 to 100 nM | < 10 nM | < 10 nM | < 10 nM | C=CC(=O)Nc1cc(Nc2cc(Nc3cc(F)cc(Br)c3)ncn2)c(OC)cc1N(C)CCN(C)C [Compound 139, N-(5-(6-(3-bromo-5-fluoro-phenylamino)-pyrimidin-4-ylamino)-2-((2-dimethylamino-ethyl)-methyl-amino)-4-methoxyl-phenyl)-acrylamide] | < 10 nM | < 10 nM
> 1000 nM | > 1000 nM | 100 to 1000 nM | > 1000 nM | < 10 nM | 10 to 100 nM | < 10 nM | < 10 nM | 10 to 100 nM | C=CC(=O)Nc1cc(Nc2ncnc(Nc3cccc(Cl)c3)n2)c(OC)cc1N(C)CCN(C)C [Compound 108, N-(5-(4-(3-chloro-phenylamino)-[1,3,5]triazin-2-ylamino)-2-((2-dimethylamino-ethyl)-methyl-amino)-4-methoxyl-phenyl)-acrylamide] | 10 to 100 nM | < 10 nM
> 1000 nM | > 1000 nM | 100 to 1000 nM | > 1000 nM | 10 to 100 nM | 10 to 100 nM | < 10 nM | 10 to 100 nM | 100 to 1000 nM | C=CC(=O)Nc1cc(Nc2nccc(-n3ccc4ccccc43)n2)c(OC)cc1N(C)CCN(C)C [Compound 32] | 10 to 100 nM | 10 to 100 nM
> 1000 nM | > 1000 nM | 100 to 1000 nM | > 1000 nM | < 10 nM | 10 to 100 nM | < 10 nM | < 10 nM | 100 to 1000 nM | C=CC(=O)Nc1cc(Nc2ncnc(Nc3cccc(C(F)(F)F)c3)n2)c(OC)cc1N(C)CCN(C)C [Compound 113, N-(5-(4-(3-trifluoromethyl-phenylamino)-[1,3,5]triazin-2-ylamino)-2-((2-dimethylamino-ethyl)-methyl-amino)-4-methoxyl-phenyl)-acrylamide] | 10 to 100 nM | 10 to 100 nM
> 1000 nM | > 1000 nM | 10 to 100 nM | > 1000 nM | < 10 nM | < 10 nM | < 10 nM | < 10 nM | < 10 nM | C=CC(=O)Nc1cc(Nc2cc(Nc3ccc(F)c(Cl)c3)ncn2)c(OC)cc1OCCN1CCN(C)CC1 [Compound 150, N-(5-(6-(3-chloro-4-fluoro-phenylamino)-pyrimidin-4-ylamino)-2-(2-(4-methyl-piperazin-lyl)-ethoxyl)-4-methoxyl-phenyl)-acrylamide] | 10 to 100 nM | 10 to 100 nM
> 1000 nM | > 1000 nM | 100 to 1000 nM | > 1000 nM | 100 to 1000 nM | 10 to 100 nM | 10 to 100 nM | 100 to 1000 nM | 100 to 1000 nM | C=CC(=O)Nc1cc(Nc2nccc(-n3ccc4cc(C)ccc43)n2)c(OC)cc1N(C)CCN(C)C [Compound 77, N-(5-(4-(5-methyl-1H-indol-1-yl)-pyrimidin-2-ylamino)-2-((2-dimethylamino-ethyl)-methyl-amino)-4-methoxyl-phenyl)-acrylamide] | 100 to 1000 nM | 100 to 1000 nM
> 1000 nM | > 1000 nM | 100 to 1000 nM | > 1000 nM | < 10 nM | 10 to 100 nM | < 10 nM | < 10 nM | 10 to 100 nM | C=CC(=O)Nc1cc(Nc2nccc(Nc3cccc(F)c3)n2)c(OC)cc1N(C)CCN(C)C [Compound 3, N-(5-(4-(3-fluoro-phenylamino)-pyrimidin-2-ylamino)-2-(2-(dimethylamino-ethyl)-methyl-amino)-4-methoxyl-phenyl)-acrylamide] | 10 to 100 nM | 10 to 100 nM
> 1000 nM | > 1000 nM | 100 to 1000 nM | > 1000 nM | 10 to 100 nM | < 10 nM | 10 to 100 nM | 10 to 100 nM | 10 to 100 nM | C=CC(=O)Nc1cc(Nc2nccc(-n3ccc4cc(OC)ccc43)n2)c(OC)cc1N(C)CCN(C)C [Compound 78, N-(5-(4-(5-methoxyl-1H-indol-1-yl)-pyrimidin-2-ylamino)-2-((2-dimethylamino-ethyl)-methyl-amino)-4-methoxyl-phenyl)-acrylamide] | 10 to 100 nM | < 10 nM
> 1000 nM | > 1000 nM | > 1000 nM | > 1000 nM | 10 to 100 nM | 10 to 100 nM | 10 to 100 nM | 10 to 100 nM | 100 to 1000 nM | C=CC(=O)Nc1cc(Nc2nccc(Nc3cc(OC)c(Cl)cc3Cl)n2)c(OC)cc1N(C)CCN(C)C [Compound 16, N-(5-(4-(2,4-dichloro-5-methoxyphenyl-amino)-pyrimidin-2-ylamino)-2-(2-(dimethylamino-ethyl)-methyl-amino)-4-methoxyl-phenyl)-acrylamide] | 100 to 1000 nM | 100 to 1000 nM
> 1000 nM | > 1000 nM | 100 to 1000 nM | > 1000 nM | 10 to 100 nM | 10 to 100 nM | 10 to 100 nM | 10 to 100 nM | 100 to 1000 nM | C=CC(=O)Nc1cc(Nc2nccc(-n3ccc4ccc(C)cc43)n2)c(OC)cc1N(C)CCN(C)C [Compound 59] | 100 to 1000 nM | 100 to 1000 nM
> 1000 nM | > 1000 nM | > 1000 nM | > 1000 nM | 10 to 100 nM | 10 to 100 nM | 10 to 100 nM | 10 to 100 nM | 10 to 100 nM | C=CC(=O)Nc1cc(Nc2nccc(-n3nnc4ccccc43)n2)c(OC)cc1N(C)CCN(C)C [Compound 107] | 100 to 1000 nM | 10 to 100 nM
> 1000 nM | > 1000 nM | 100 to 1000 nM | > 1000 nM | 10 to 100 nM | 10 to 100 nM | 10 to 100 nM | 10 to 100 nM | 10 to 100 nM | C=CC(=O)Nc1cc(Nc2cc(-c3cn(C)c4cc(F)ccc34)ncn2)c(OC)cc1N(C)CCN(C)C [Compound 186, N-(4-methoxyl-5-(6-(6-fluoro-1-methyl-1H-indol-3-yl)-pyrimidin-4-ylamino)-2-(2-(dimethylamino-ethyl)-methyl-amino)-phenyl)-acrylamide] | 10 to 100 nM | 10 to 100 nM
